Patent publication US20230372498A1, “PLK1 SELECTIVE DEGRADATION INDUCING COMPOUND” (UPPTHERA, priority 2020, published 2023)

Biological target: T1, PLK1 (Homo sapiens, UniProt P53350)
T1 construct: endogenous in cells; host or cells: HeLa
Assay: PLK1 protein degradation in HeLa cells, Western blotting (PLK1/GAPDH ratio)
Format: cell-based
Conditions: for DC50 / Dmax: 6 hours compound incubation; for DC50: measured only if the grade of Dmax is A or B; for PLK1 protein degradability (western blot, FIG. 1 and 2): in comparison with Comparative Compounds; for Dmax: thymidine block and release, 10 points three-fold from 3 μM, PLK1 to GAPDH ratio, read-out: Dmax
Excerpt: The HeLa cell line was purchased from Korea Cell Line Bank (KCLB), Seoul, Korea. The passage in cell culture was maintained at P115 to P125.
For cell culture, DMEM (Gibco, Cat. No. 1195-65; Lot. No. 2085318), FBS (Gibco, Cat. No. 16000-044; Lot. No. 2097593), Penicillin/Streptomycin (PS) (Gibco, Cat. No. 15140-122; Lot. No. 2058855), 100 mm^2 cell culture dish (SPL, Cat. No. 20100), 150 mm^2 cell culture dish (SPL, Cat. No. 20150), 12-well culture plate (SPL, Cat. No. 30012), PBS pH 7.4 (Gibco, Cat. No. 10010-023; Lot. No. 2085080), TrypLE™ Express (Gibco, Cat. No. 12605-010; Lot No. 2070638), Counting Chamber (Hematocytometer) (Hirschmann, Cat. No. 8100204), and 0.4% Trypan Blue Solution (DYNEBIO, Cat. No. CBT3710; Lot. No. 20190723) were used.
2×10^5 cells were seeded for each well of a 12-well plate (SPL), and the cells were cultured in the culture medium in a total volume of 2 ml.
The compounds of Examples were completely dissolved in DMSO and used in the experiment, and thymidine was completely dissolved in DW and used in the experiment. For thymidine block, the products were treated with 2 mM of thymidine (Sigma-Aldrich Cat. No. T9250-5G) and then incubated for 24 hours.
For release and chemical treatment, the medium was suctioned and washed 3 times with 1×PBS. Complete media was added, followed by incubation for 4 hours in a CO2 incubator. Each compound was diluted three folds from the highest concentration of 3 μM to the lowest concentration in 10 points and then incubated for 6 hours again.
For SDS-PAGE and Western blotting, 1×RIPA lysis buffer (Rockland, Cat. No. MB-030-0050; Lot no. 39751), 100× Protease Inhibitor Cocktail (Quartett, Cat. No. PPI1015; Lot no. PCO50038424), Pierce™ BCA protein assay kit (ThermoScientific, Cat. No. 23225; Lot no. UC276876), albumin standard (ThermoScientific, Cat. No. 23209; Lot no. UB269561), 4-15% Mini-PROTEAN TGX stain-free gel (Bio-rad, Cat. No. 4568085; Lot no. L007041B), 10× Tris/Glycine/SDS buffer (Bio-rad, Cat. No. 1610732; Lot no. 10000044375B); 10×TBS (Bio-rad, Cat. No. 1706435; Lot no. 1000045140B), 10% Tween 20 (Cat. No. 1610781; Lot no. L004152B), Color protein standard broad range (NEB, Cat. No. P7719S; Lot no. 10040349), 4× Laemmli sample buffer (Bio-rad, Cat. No. 1610747; Lot no. L004133B), β-mercaptoethanol (Sigma-Aldrich, Cat. No. M3148; Lot no. 60-24-2), SuperBlock™ T20 (TBS) blocking buffer (ThermoScientific, Cat. No. 37536; Lot no. UC282578), 1M sodium azide solution (Sigma-Aldrich, Cat. No. 08591-1 mL-F; Lot no. BCBV4989), α-Rabbit pAb to Ms IgG (abcam, Cat. No. ab97046; Lot no. GR3252115-1), α-Goat pAb to Rb IgG (CST, Cat. No. 7074S; Lot no. 28), α-GAPDH (abcam, Cat. No. ab8245; Lot no. GR3275542-2), α-Plk1 (CST, Cat. No. 208G4), α-BRD4 (CST, Cat. No. 13440S), ECL™ Prime western blotting reagents (GE Healthcare, Cat. No. RPN2232; Lot no. 17001655), Ponceau S solution (Sigma-Aldrich, Cat. No. P7170; Lot no. SLBV4112), Difco™ Skim milk (BD, Cat. No. 232100; Lot no. 8346795), and iBlot® 2 NC Regular stacks (Invitrogen, Cat. No. IB323001; Lot no. 2NR110619-02) were used.
For cell harvesting, the cells were first separated from the plate using trypsin and then washed with the medium and PBS. Specifically, the medium was suctioned off and washed with 1 mL of PBS, and PBS was suctioned off. The cells were treated with 0.5 mL TrypLE™ Express at 37° C. for 7 minutes to separate the cells, and then 0.5 mL of complete medium was added to collect 1 mL of cell culture solution. Then, 1 mL of the cell collection solution was centrifuged at 8,000 rpm for 120 seconds, and the supernatant was removed. After washing with 0.2 mL of PBS, the PBS was removed.
For cell lysis, a lysis buffer was added and cell debris was removed to obtain a cell lysate. Specifically, the cells were treated with 70 μL of 1×RIPA buffer containing a protease inhibitor and incubated for 30 minutes on ice. Then, the cells were centrifuged at 4° C. and 15,000 rpm for 10 minutes to obtain a cell lysate. […]

T1 sequence (P53350 whole entry): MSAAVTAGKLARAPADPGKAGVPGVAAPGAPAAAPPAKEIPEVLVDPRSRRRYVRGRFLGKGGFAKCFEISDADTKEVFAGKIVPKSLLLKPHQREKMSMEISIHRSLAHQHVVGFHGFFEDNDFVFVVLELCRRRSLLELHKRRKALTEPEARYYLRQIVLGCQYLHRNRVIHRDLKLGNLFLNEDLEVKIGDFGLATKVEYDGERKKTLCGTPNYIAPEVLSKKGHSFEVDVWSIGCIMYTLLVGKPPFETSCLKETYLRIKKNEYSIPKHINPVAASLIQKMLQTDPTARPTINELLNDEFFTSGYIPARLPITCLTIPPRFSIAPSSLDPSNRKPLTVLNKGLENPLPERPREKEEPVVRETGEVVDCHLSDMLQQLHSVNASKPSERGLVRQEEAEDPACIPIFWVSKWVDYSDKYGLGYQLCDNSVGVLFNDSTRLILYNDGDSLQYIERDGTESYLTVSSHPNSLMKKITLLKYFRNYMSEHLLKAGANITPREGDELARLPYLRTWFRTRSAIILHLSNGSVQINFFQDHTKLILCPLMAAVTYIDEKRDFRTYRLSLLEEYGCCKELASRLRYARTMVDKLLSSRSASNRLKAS

| DC50 [nM] | PLK1 protein degradability (western blot, FIG. 1 and 2) | Dmax [%] | SMILES |
| --- | --- | --- | --- |
| ≤ 50 | excellent PLK1 protein degradability | ≥ 80 | COc1cc(C(=O)NC2CCN(CCOCCNc3cccc4c3C(=O)N(C3CCC(=O)NC3=O)C4=O)CC2)c(F)cc1Nc1ncc2c(n1)N(C1CCCC1)CC(F)(F)C(=O)N2C (stereo not shown) [Compound 1, 4-((9-cyclopentyl-7,7-difluoro-5-methyl-6-oxo-6,7,8,9-tetrahydro-5H-pyrimido[4,5-b][1,4]diazepin-2-yl)amino)-N-(1-(2-(2-((2-(2,6-dioxopiperidin-3-yl)-1,3-dioxoisoindolin-4-yl)amino)ethoxy)ethyl)piperidin-4-yl)-2-fluoro-5-methoxybenzamide] |
| ≤ 50 | excellent PLK1 protein degradability | ≥ 80 | COc1cc(C(=O)NC2CCN(CCOCCOCCNc3cccc4c3C(=O)N(C3CCC(=O)NC3=O)C4=O)CC2)c(F)cc1Nc1ncc2c(n1)N(C1CCCC1)CC(F)(F)C(=O)N2C (stereo not shown) [Compound 2, 4-((9-cyclopentyl-7,7-difluoro-5-methyl-6-oxo-6,7,8,9-tetrahydro-5H-pyrimido[4,5-b][1,4]diazepin-2-yl)amino)-N-(1-(2-(2-(2-((2-(2,6-dioxopiperidin-3-yl)-1,3-dioxoisoindolin-4-yl)amino)ethoxy)ethoxy)ethyl)piperidin-4-yl)-2-fluoro-5-methoxybenzamide] |
| ≤ 50 |  | ≥ 80 | COc1cc(C(=O)NC2CCN(CCOCCOCCOCCNc3cccc4c3C(=O)N(C3CCC(=O)NC3=O)C4=O)CC2)c(F)cc1Nc1ncc2c(n1)N(C1CCCC1)CC(F)(F)C(=O)N2C (stereo not shown) [Compound 3, 4-((9-cyclopentyl-7,7-difluoro-5-methyl-6-oxo-6,7,8,9-tetrahydro-5H-pyrimido[4,5-b][1,4]diazepin-2-yl)amino)-N-(1-(2-(2-(2-(2-((2-(2,6-dioxopiperidin-3-yl)-1,3-dioxoisoindolin-4-yl)amino)ethoxy)ethoxy)ethoxy)ethyl)piperidin-4-yl)-2-fluoro-5-methoxybenzamide] |
| ≤ 50 |  | ≥ 80 | COc1cc(C(=O)NC2CCN(CCOCCOCCOCCOCCNc3cccc4c3C(=O)N(C3CCC(=O)NC3=O)C4=O)CC2)c(F)cc1Nc1ncc2c(n1)N(C1CCCC1)CC(F)(F)C(=O)N2C (stereo not shown) [Compound 4, 4-((9-cyclopentyl-7,7-difluoro-5-methyl-6-oxo-6,7,8,9-tetrahydro-5H-pyrimido[4,5-b][1,4]diazepin-2-yl)amino)-N-(1-(14-((2-(2,6-dioxopiperidin-3-yl)-1,3-dioxoisoindolin-4-yl)amino)-3,6,9,12-tetraoxatetradecyl)piperidin-4-yl)-2-fluoro-5-methoxybenzamide] |
| ≤ 50 |  | ≥ 80 | COc1cc(C(=O)NC2CCN(CCOCCOCCOCCOCCOCCNc3cccc4c3C(=O)N(C3CCC(=O)NC3=O)C4=O)CC2)c(F)cc1Nc1ncc2c(n1)N(C1CCCC1)CC(F)(F)C(=O)N2C (stereo not shown) [Compound 5, 4-((9-cyclopentyl-7,7-difluoro-5-methyl-6-oxo-6,7,8,9-tetrahydro-5H-pyrimido[4,5-b][1,4]diazepin-2-yl)amino)-N-(1-(17-((2-(2,6-dioxopiperidin-3-yl)-1,3-dioxoisoindolin-4-yl)amino)-3,6,9,12,15-pentaoxaheptadecyl)piperidin-4-yl)-2-fluoro-5-methoxybenzamide] |
|  |  | < 60 | COc1cc(C(=O)NC2CCN(CCOCCOCCNc3cccc4c3C(=O)N(C3CCC(=O)N(C)C3=O)C4=O)CC2)c(F)cc1Nc1ncc2c(n1)N(C1CCCC1)CC(F)(F)C(=O)N2C (stereo not shown) [Compound 6, 4-((9-cyclopentyl-7,7-difluoro-5-methyl-6-oxo-6,7,8,9-tetrahydro-5H-pyrimido[4,5-b][1,4]diazepin-2-yl)amino)-2-fluoro-5-methoxy-N-(1-(2-(2-(2-((2-(1-methyl-2,6-dioxopiperidin-3-yl)-1,3-dioxoisoindolin-4-yl)amino)ethoxy)ethoxy)ethyl)piperidin-4-yl)benzamide] |
|  |  | < 60 | COc1cc(C(=O)NC2CCN(CCOCCOCCOCCOCCNc3cccc4c3C(=O)N(C3CCC(=O)N(C)C3=O)C4=O)CC2)c(F)cc1Nc1ncc2c(n1)N(C1CCCC1)CC(F)(F)C(=O)N2C (stereo not shown) [Compound 7, 4-((9-cyclopentyl-7,7-difluoro-5-methyl-6-oxo-6,7,8,9-tetrahydro-5H-pyrimido[4,5-b][1,4]diazepin-2-yl)amino)-2-fluoro-5-methoxy-N-(1-(14-((2-(1-methyl-2,6-dioxopiperidin-3-yl)-1,3-dioxoisoindolin-4-yl)amino)-3,6,9,12-tetraoxatetradecyl)piperidin-4-yl)benzamide] |
|  |  | < 60 | COc1cc(C(=O)NC2CCN(CCCCNc3cccc4c3C(=O)N(C3CCC(=O)NC3=O)C4=O)CC2)c(F)cc1Nc1ncc2c(n1)N(C1CCCC1)CC(F)(F)C(=O)N2C (stereo not shown) [Compound 8, 4-((9-cyclopentyl-7,7-difluoro-5-methyl-6-oxo-6,7,8,9-tetrahydro-5H-pyrimido[4,5-b][1,4]diazepin-2-yl)amino)-N-(1-(4-((2-(2,6-dioxopiperidin-3-yl)-1,3-dioxoisoindolin-4-yl)amino)butyl)piperidin-4-yl)-2-fluoro-5-methoxybenzamide] |
| ≤ 500 |  | 60 to 80 | COc1cc(C(=O)NC2CCN(CCCCCNc3cccc4c3C(=O)N(C3CCC(=O)NC3=O)C4=O)CC2)c(F)cc1Nc1ncc2c(n1)N(C1CCCC1)CC(F)(F)C(=O)N2C (stereo not shown) [Compound 9, 4-((9-cyclopentyl-7,7-difluoro-5-methyl-6-oxo-6,7,8,9-tetrahydro-5H-pyrimido[4,5-b][1,4]diazepin-2-yl)amino)-N-(1-(5-((2-(2,6-dioxopiperidin-3-yl)-1,3-dioxoisoindolin-4-yl)amino)pentyl)piperidin-4-yl)-2-fluoro-5-methoxybenzamide] |
| ≤ 500 |  | 60 to 80 | COc1cc(C(=O)NC2CCN(CCCCCCNc3cccc4c3C(=O)N(C3CCC(=O)NC3=O)C4=O)CC2)c(F)cc1Nc1ncc2c(n1)N(C1CCCC1)CC(F)(F)C(=O)N2C (stereo not shown) [Compound 10, 4-((9-cyclopentyl-7,7-difluoro-5-methyl-6-oxo-6,7,8,9-tetrahydro-5H-pyrimido[4,5-b][1,4]diazepin-2-yl)amino)-N-(1-(6-((2-(2,6-dioxopiperidin-3-yl)-1,3-dioxoisoindolin-4-yl)amino)hexyl)piperidin-4-yl)-2-fluoro-5-methoxybenzamide] |
